In assay [1] the target is T1, Recombinant Human 5′-Nucleotidase (CD73) (Homo sapiens, UniProt P21589).
T1 construct: CHO derived CD73 (Trp27-Lys547), with a C-terminal 6-His tag; 6-His (C); purchased R&D 5795-EN; host or cells: CHO
T1 sequence (P21589 27-547): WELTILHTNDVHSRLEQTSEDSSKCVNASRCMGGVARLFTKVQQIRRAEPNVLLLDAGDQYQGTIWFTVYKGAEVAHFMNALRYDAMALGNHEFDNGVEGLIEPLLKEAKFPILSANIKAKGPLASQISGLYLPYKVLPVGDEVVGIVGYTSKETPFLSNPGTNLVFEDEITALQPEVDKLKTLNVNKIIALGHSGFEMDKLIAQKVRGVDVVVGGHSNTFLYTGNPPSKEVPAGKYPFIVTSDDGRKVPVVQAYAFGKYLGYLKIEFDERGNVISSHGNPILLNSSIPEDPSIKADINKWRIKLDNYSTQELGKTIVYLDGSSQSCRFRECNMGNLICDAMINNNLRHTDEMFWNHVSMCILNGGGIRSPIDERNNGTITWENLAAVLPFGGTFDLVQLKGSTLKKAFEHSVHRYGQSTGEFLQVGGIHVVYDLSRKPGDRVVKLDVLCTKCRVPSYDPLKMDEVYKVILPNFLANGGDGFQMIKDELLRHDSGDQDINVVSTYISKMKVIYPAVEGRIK
Description: CD73 Enzyme Assay. It counts as biochemical. The following applies: 0.5 nM human CD73, 30 μM AMP, PiColorLock phosphate detection, OD 635 nm; read-out: Potency (IC50). The procedure, abridged: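 CHO-derived human CD73 (Trp27-Lys547, C-terminal His tag; 0.5 nM) preincubated with compound 15 min at 25° C in Tris pH 7.5 with MgCl2 and Tween-20. Reaction with 30 μM AMP ran 20 min at 37° C; released phosphate read by malachite green at 635 nm, IC50 from 4-parameter logistic fit.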

In assay [2] the target is T2, Cell surface CD73 of U87 MG human glioblastoma cells (Homo sapiens, UniProt P21589).
T2 construct: Cell surface CD73 catalyzes the conversion of adenosine monophosphate (AMP) to adenosine and inorganic phosphate; endogenous in cells; host or cells: U87 MG human glioblastoma cells
T2 sequence (P21589 27-549): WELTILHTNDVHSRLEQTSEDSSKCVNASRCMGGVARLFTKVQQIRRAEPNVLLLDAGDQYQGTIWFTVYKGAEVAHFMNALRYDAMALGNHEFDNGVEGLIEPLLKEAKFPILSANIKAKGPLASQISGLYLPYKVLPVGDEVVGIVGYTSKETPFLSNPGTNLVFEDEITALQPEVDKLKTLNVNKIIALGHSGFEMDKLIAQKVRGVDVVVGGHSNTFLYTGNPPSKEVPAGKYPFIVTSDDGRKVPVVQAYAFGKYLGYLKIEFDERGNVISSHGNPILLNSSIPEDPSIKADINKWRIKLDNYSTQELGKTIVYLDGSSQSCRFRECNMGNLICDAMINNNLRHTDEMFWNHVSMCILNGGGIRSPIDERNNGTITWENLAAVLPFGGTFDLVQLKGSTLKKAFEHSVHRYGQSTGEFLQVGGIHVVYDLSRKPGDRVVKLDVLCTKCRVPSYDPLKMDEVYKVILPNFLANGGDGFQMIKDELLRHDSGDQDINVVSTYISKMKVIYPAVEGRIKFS
Nature of the assay: CD73 Cellular Assay. The note with it: 5000 cells per well, 30 μM AMP, PiColorLock phosphate detection in supernatant, read-out: Potency (IC50). In kind it is cell-based. The protocol: Cell surface CD73 catalyzes the conversion of adenosine monophosphate (AMP) to adenosine and inorganic phosphate. U87 MG human glioblastoma cells express high level of CD73. Cells are treated with compounds in a 96-well assay plate and supernatants are collected into a 384-well detection plate. The concentration of inorganic phosphate (Pi) in the supernatants is determined using the phosphate detection reagent, PiColorLock™ (Innova Bioscience, Cat #303-0125) following the manufacturer's instructions.
Briefly, on the day of the assay, U87 MG cells were harvested and resuspended in assay buffer which consisted of 20 mM HEPES, pH=7.4, 137 mM NaCl, 5.4 mM KCl, 1.3 mM CaCl2, 4.2 mM NaHCO3 and 0.1% glucose. To test the effect of compounds on cellular CD73 enzymatic activity, 500 nL/well of compounds dissolved in DMSO were added to a 96-well TC-treated microplate (Corning #3599). Next, 80 μL/well of U87 MG cells in assay buffer were added to assay plate. After 30 minutes of incubation in an atmosphere of 5% CO2 at 37° C., 20 μL/well of 150 μM AMP (Adenosine 5′-monophosphate monohydrate, Sigma, Cat #01930) in assay buffer was added to assay plate. Final assay conditions consisted of 5000 cells per well in 0.5% DMSO and 30 μM AMP substrate. After 50 minutes of incubation in an atmosphere of 5% CO2 at 37° C., 50 μL/well of supernatant was transferred to the 384-well detection plate (Corning® NBSTM 384 well plates, Cat #3640). Meanwhile “Gold mix” was prepared shortly before use by adding 1/100 volume of accelerator to the PiColorLock™ Gold reagent. 12 μL/well of the “Gold mix” was added to detection plate containing 50 μL/well of supernatant and incubated at 25° C. for 5 minutes. 5 μL/well stabilizer was added to the detection plate and incubated at 25° C. for 30 minutes. The absorbance at 635 nm was measured on a Spark 10M instrument (TECAN).
The percent (%) inhibition at each concentration of a compound was calculated relative to the OD value in the Max and Min control wells contained within each assay plate. The Max control wells contained cells and substrate as 0% inhibition, and the Min control wells only contained cells as 100% inhibition. The concentrations and percent inhibition values for a test compound are plotted and the concentration of the compound required to achieve 50% inhibition (IC50) was determined with a four-parameter logistic dose response equation.

Bounds are passed on as bounds.

For the molecule `O=P(O)(O)CP(=O)(O)OC[C@H]1O[C@@H](c2ccc3c(NCC4CC4)nc(Cl)nc3c2)[C@H](O)[C@@H]1O` [Compound 9, (((((2R,3S,4R,5S)-5-(2-chloro-4-((cyclopropylmethyl)amino)quinazolin-7-yl)-3,4-dihydroxytetrahydrofuran-2-yl)methoxy)(hydroxy)phosphoryl)methyl)phosphonic acid], the IC50 is 10 to 99 nM in assay [1] and less than 10 nM in assay [2].

On to `CN(c1nc(Cl)nc2cc([C@@H]3O[C@H](COP(=O)(O)CP(=O)(O)O)[C@@H](O)[C@H]3O)ccc12)C1CCCC1` [Compound 3, (((((2R,3S,4R,5S)-5-(2-chloro-4-(cyclopentyl(methyl)amino)quinazolin-7-yl)-3,4-dihydroxytetrahydrofuran-2-yl)methoxy)(hydroxy)phosphoryl)methyl)phosphonic acid], for which the IC50 is 10 to 99 nM in assay [1] and less than 10 nM in assay [2].

As to `Cc1nc(NCc2ccccc2)c2ccc([C@@H]3O[C@H](COP(=O)(O)CP(=O)(O)O)[C@@H](O)[C@H]3O)cc2n1` [Compound 17, (((((2R,3S,4R,5S)-5-(4-(benzylamino)-2-methylquinazolin-7-yl)-3,4-dihydroxytetrahydrofuran-2-yl)methoxy)(hydroxy)phosphoryl)methyl)phosphonic acid], the figures for the IC50 in assay [1] and in assay [2] were 10 to 99 nM and less than 10 nM, respectively.

For the molecule `O=P(O)(O)CP(=O)(O)OC[C@H]1O[C@@H](c2ccc3c(NCc4ccccc4)ncnc3c2)[C@H](O)[C@@H]1O` [Compound 12, [({[(2R,3S,4R,5S)-5-[4-(benzylamino)quinazolin-7-yl]-3,4-dihydroxyoxolan-2-yl]methoxy}(hydroxy)phosphoryl)methyl]phosphonic acid], the IC50 in assay [1] was 10 to 99 nM; in assay [2], less than 10 nM.

In the case of `O=P(O)(O)CP(=O)(O)OC[C@H]1O[C@@H](c2ccc3c(NC4CCCC4)ncnc3c2)[C@H](O)[C@@H]1O` [Compound 46, [({[(2R,3S,4R,5S)-5-[4-(cyclopentylamino)quinazolin-7-yl]-3,4-dihydroxyoxolan-2-yl]methoxy}(hydroxy)phosphoryl)methyl]phosphonic acid], the results for the IC50 in assay [1] and in assay [2] were less than 10 nM and greater than 1000 nM, respectively.

Consider `O=P(O)(O)CP(=O)(O)OC[C@H]1O[C@@H](c2ccc3c(NCC4CCCC(O)C4)nc(Cl)nc3c2)[C@H](O)[C@@H]1O` (stereo partly drawn) [Compound 28, (((((2R,3S,4R,5S)-5-(2-chloro-4-(((3-hydroxycyclohexyl)methyl)amino)quinazolin-7-yl)-3,4-dihydroxytetrahydrofuran-2-yl)methoxy)(hydroxy)phosphoryl)methyl)phosphonic acid], for which the results for the IC50 in assay [1] and in assay [2] were less than 10 nM and 100 to 999 nM, respectively.
